Experimental data taken from patent US20130344494A1, “MYH10 AS A NEW MARKER OF PATHOLOGIES RESULTING FROM RUNX1 INACTIVATION” (priority 2011, published 2013).

Key:
CD41+ MK = assay: Ploidy level of CD41+ MK cultured from mouse fetal liver Lin- progenitors; format: cell-based, mice; conditions: 50 μM blebbistatin, p=0.01, n=3
Protocol: Thus, the ploidy level of CD41^+ MK was analyzed directly after dissociation the fetal liver as previously described for bone marrow MK (GILLES et al, Blood, 2009). Briefly, the hematopoietic progenitors (Lineage negative, Lin-, cells) were purified from fetal liver of E13.5 by the kit MILTENYI BIOTEC and were cultivated in serum free medium with TPO and stem cell factor (SCF). Blebbistatin was added in the culture just after the purification and ploidy level of CD41^+ cells was analyzed at day 3 of culture.

CD41+ cells (MKs) = assay: FRAP of actin-GFP turnover in the contractile ring of MKs; format: cell-based; conditions: Blebbistatin 12.5 μM
Protocol: CD41^+ GFP^+ and CD41^− GFP^+ cells were sorted and the actin turnover was measured in the contractile ring at the end of cytokinesis by FRAP in the dipolar mitosis or endomitosis.

CD41+/CD42+ MKs = assay: MK ploidy level by flow cytometry after addition of Blebbistatin; format: cell-based; conditions: added at day 6, 72 h
Protocol: To investigate the role of myosin II in MK endomitosis, Blebbistatin was used to inhibit its […] during megakaryocytosis. Blebbistatin is added into MK culture at day 6. The ploidy level of CD41^+/CD42^+ MKs was analyzed by flow cytometry 72 h after addition of Blebbistatin.

H2B-GFP-expressing MKs = assay: Real-time video microscopy of endomitosis in H2B-GFP-expressing MKs; format: cell-based; conditions: Blebbistatin 25 μM
Protocol: To check more precisely how myosin II inhibition affects the endomitosis process, we used real-time video microscopy to monitor endomitosis in H2B-GFP-expressing MKs treated with Blebbistatin (25 μM). Endomitotic MK treated with Blebbistatin or without Blebbistatin were filmed in 3 independent experiments.

## Cc1ccc2c(c1)C(=O)C1(O)CCN(c3ccccc3)C1=N2 (centres unmarked) [Blebbistatin]
CD41+ MK; myh9−/− mice, without 10.40
  mean ploidy level: 14.72
CD41+ MK; wt control mice, without 10.00N
  mean ploidy level: 13.40 N
CD41+ cells (MKs); control 55.7%±12.8, n=8, p=0.01
  actin-GFP fluorescence recovery in the contractile ring of MKs: 42.9%±9.0
CD41+ cells (MKs); n=8
  t1/2 of actin-GFP fluorescence recovery: 2.94 ± 1.35 s
CD41+/CD42+ MKs; 25 μM Blebbistatin, control 6.47N, n=3, p=0.015
  mean ploidy: 11.27 N
CD41+/CD42+ MKs; 100 μM Blebbistatin, control 6.28N, n=4, p=0.008
  mean ploidy: 12.13 N
H2B-GFP-expressing MKs
  furrow ingression of MKs: almost completely inhibited
  metaphase-to-anaphase transition: apparently normal
